The IC50 is the concentration needed to halve the response being measured. One may read the inhibition as how much of the control response was suppressed. Usually Cmax stands for the peak of the concentration-time curve.

The target of data set [1] is T1, NACHT, LRR and PYD domains-containing protein 3 (Mus musculus, UniProt Q8R4B8). Kind of data set: Inhibition of NLRP3 inflammasome activation in LPS-primed mouse bone marrow derived macrophages assessed as reduction in IL-1beta level preincubated for 30 mins followed by addition of ATP and measured after 1 hr by ELISA method. On the technique in general: ELISA stands for enzyme-linked immunosorbent assay.
T1 sequence (Q8R4B8 whole entry, the tested form may be a part): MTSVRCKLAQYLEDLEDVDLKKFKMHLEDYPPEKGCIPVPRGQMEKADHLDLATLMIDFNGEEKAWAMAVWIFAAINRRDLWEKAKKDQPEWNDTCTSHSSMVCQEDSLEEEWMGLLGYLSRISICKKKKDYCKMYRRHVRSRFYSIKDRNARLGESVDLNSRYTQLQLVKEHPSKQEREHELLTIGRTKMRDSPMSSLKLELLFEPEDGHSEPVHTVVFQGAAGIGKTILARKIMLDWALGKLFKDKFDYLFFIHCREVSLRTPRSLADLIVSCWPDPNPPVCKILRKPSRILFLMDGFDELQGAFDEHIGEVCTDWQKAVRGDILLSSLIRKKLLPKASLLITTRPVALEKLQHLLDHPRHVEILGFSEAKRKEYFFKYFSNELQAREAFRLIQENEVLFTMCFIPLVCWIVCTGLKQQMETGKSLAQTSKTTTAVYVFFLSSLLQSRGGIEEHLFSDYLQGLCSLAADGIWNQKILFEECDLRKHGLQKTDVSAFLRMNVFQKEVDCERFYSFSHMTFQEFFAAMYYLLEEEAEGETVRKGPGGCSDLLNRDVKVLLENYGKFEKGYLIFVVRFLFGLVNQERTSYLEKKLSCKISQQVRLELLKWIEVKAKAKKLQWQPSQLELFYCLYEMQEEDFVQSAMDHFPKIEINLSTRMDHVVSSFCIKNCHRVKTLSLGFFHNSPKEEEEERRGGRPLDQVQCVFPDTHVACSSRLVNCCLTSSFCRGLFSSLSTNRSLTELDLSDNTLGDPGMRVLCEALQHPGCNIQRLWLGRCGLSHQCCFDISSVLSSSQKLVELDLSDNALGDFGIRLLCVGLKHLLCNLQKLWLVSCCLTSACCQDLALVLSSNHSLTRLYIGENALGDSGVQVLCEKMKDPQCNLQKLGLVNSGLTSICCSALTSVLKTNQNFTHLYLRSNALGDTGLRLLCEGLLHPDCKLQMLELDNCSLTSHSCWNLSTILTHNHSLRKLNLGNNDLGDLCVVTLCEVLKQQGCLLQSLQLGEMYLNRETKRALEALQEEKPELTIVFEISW

The target in data set [2] is T1, NACHT, LRR and PYD domains-containing protein 3. Kind of data set: Inhibition of NLRP3 inflammasome activation in LPS-primed mouse NG5 cells assessed as reduction in IL-1beta level incubated for 15followed by addition of ATP by ELISA method. The class given is cell-based.
Data set [3] has the same target. Kind of data set: Inhibition of NLRP3 inflammasome activation in LPS-primed C57BL/6 mouse bone marrow derived macrophages preincubated for 15 mins followed by addition of ATP and measured after 1 hr by ELISA.
The target is the same in data set [4]. Kind of data set: Inhibition of NLRP3 inflammasome activation in mouse J774A.1 cells assessed as reduction in IL-1beta level preincubated for 2 hrs followed by LPS-stimulation and further incubated for 5.5 hrs and subsequently ATP addition and measured after 30 mins by ELISA method. The format is cell-based.
A further data set concerns the target T2, Peroxiredoxin-1 (Homo sapiens, UniProt Q06830).
T2 sequence (Q06830 whole entry): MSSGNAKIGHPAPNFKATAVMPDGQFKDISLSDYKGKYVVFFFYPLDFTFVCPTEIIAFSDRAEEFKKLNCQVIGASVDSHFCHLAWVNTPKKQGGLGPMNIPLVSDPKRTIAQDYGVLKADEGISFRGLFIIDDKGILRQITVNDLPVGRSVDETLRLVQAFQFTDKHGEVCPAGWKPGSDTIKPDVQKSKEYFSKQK
Kind of data set: Inhibition of PRDX1 in human PMA-differentiated LPS-stimulated THP1 cells assessed as reduction in NLRP3 inflammasome activation preincubated for 1 hr followed by addition of ATP and mesured after 1 hr by ELISA.

Data set [5] deals with T3, NACHT, LRR and PYD domains-containing protein 3 (Homo sapiens, UniProt Q96P20). The experiment in a line: Inhibition of NLRP3 inflammasome activation in LPS-primed human THP1 cells assessed as reduction in IL-1beta level at 20 uM preincubated for 1 hr followed by addition of ATP and measured after 3 hrs by ELISA method relative to control.
T3 sequence (Q96P20 whole entry, the tested form may be a part): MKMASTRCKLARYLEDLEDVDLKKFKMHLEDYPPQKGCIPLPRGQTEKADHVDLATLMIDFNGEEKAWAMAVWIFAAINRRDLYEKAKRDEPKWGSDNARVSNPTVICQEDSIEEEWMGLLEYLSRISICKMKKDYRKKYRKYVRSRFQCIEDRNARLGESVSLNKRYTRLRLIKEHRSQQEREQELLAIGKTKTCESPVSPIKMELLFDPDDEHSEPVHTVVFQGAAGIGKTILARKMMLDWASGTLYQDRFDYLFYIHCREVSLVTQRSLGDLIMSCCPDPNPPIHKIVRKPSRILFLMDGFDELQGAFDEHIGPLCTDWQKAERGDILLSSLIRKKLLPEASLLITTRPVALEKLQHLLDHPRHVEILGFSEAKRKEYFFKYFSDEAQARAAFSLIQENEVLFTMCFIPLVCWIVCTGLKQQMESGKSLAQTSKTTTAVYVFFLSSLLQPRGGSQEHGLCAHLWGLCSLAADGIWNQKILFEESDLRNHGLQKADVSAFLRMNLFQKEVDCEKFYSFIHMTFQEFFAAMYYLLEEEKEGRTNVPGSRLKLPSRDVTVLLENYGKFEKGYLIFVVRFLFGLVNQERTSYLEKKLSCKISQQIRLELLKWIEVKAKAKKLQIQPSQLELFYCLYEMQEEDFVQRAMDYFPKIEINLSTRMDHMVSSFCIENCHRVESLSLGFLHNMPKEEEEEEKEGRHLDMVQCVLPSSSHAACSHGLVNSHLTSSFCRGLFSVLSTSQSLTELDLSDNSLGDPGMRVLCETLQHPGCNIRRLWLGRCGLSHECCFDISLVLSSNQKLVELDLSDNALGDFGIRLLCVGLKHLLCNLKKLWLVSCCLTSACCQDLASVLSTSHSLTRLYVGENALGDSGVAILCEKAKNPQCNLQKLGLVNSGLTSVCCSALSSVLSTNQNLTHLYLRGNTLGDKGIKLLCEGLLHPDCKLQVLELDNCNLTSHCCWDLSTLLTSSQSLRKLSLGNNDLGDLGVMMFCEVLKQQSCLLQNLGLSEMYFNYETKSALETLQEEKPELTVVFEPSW
In data set [6] the target is T3, NACHT, LRR and PYD domains-containing protein 3. The experiment in a line: Inhibition of NLRP3 inflammasome activation in PMA differentiated human THP1 cells assessed as reduction in IL-1beta level at 10 uM preincubated for 30 mins followed by addition of MSU and meaured after 6 hrs by ELISA method relative to control.
For data set [7] the target is unchanged. Kind of data set: Inhibition of NLRP3 inflammasome activation in PMA differentiated human THP1 cells assessed as reduction in IL-1beta level preincubated for 30 mins followed by addition of MSU and meaured after 6 hrs by ELISA method relative to control.
Data set [8] deals with T1, NACHT, LRR and PYD domains-containing protein 3. Kind of data set: Inhibition of NLRP3 inflammasome activation in LPS-primed mouse J774A.1 cells assessed as reduction in IL-1beta level preincubated for 1 hr followed by addition of ATP and measured after 30 mins by ELISA method.
Data set [9] deals with T3, NACHT, LRR and PYD domains-containing protein 3. The experiment in a line: Inhibition of NLRP3 inflammasome activation in LPS-stimulated human THP1 cells assessed as reduction in IL-1beta level at 10 uM preincubated for 1 hr followed by addition of ATP and measured after 1 hr by ELISA method relative to control.
Data set [10] has the same target. Kind of data set: Inhibition of NLRP3 inflammasome activation in LPS-primed human THP1 cells assessed as reduction in IL-1beta level preincubated for 1 hr followed by addition of ATP and measured after 1 hr by ELISA method.
The nature of data set [11]: Half life in C57BL/6 mouse plasma at 3 mg/kg, iv or 20 mg/kg, po. The class given is ADME, organism-based. To be noted: in vivo.
Data set [12] addresses NACHT, LRR and PYD domains-containing protein 3 (Mus musculus) (UniProt Q8R4B8). Kind of data set: Inhibition of NLRP3 inflammasome activation in LPS-primed mouse J774A.1 cells assessed as reduction in IL-1beta level at 10 uM preincubated for 1 hr followed by addition of ATP and measured after 30 mins by ELISA method relative to control.
Data set [13] deals with T3, NACHT, LRR and PYD domains-containing protein 3. The experiment in a line: Inhibition of recombinant human NLRP3 ATPase assessed as reduction in ADP formation preincubated for 10 mins followed by ATP addition and measured after 40 mins by ADP-Glo assay. (In general: ADP-Glo turns the ADP formed in a reaction into a luminescent signal.)
The test system of data set [14] is THP-1. The experiment in a line: Inhibition of pyroptosis in PMA-differentiated and LPS-primed human THP1 cells assessed as LDH activity preincubated for 1 hr followed by addition of ATP and measured after 1 hr by CytoTox 96 Non-Radioactive Cytotoxicity Assay. The format is functional, cell-based.
Data set [15] has as its system THP-1. Kind of data set: Inhibition of pyroptosis in PMA-differentiated and LPSprimed human THP1 cells assessed as LDH activity at 10 uM preincubated for 1 hr followed by addition of ATP and measured after 1 hr by CytoTox 96 Non-Radioactive Cytotoxicity Assay relative to control. The class given is functional.
Data set [16] has as its target T1, NACHT, LRR and PYD domains-containing protein 3. Kind of data set: Inhibition of NLRP3 inflammasome activation in LPS-primed mouse bone marrow derived macrophages incubated for 1 hr followed by addition of ATP and measured after 1 hr by immunoblotting analysis.
Data set [17] can be described thus: Cmax in mouse at 1000 mg, po administered once daily for 8 days. The format is ADME, organism-based. Also noted: dose 1000 mg, route oral. The settings on record: in vivo.
Data set [18] concerns the target T1, NACHT, LRR and PYD domains-containing protein 3. Kind of data set: Inhibition of NLRP3 inflammasome activation in LPS-primed mouse J774A.1 cells assessed as reduction in IL-1beta level preincubated for 30 mins followed by addition of nigericin and measured after 40 mins by ELISA.

NACHT, LRR and PYD domains-containing protein 3 (Mus musculus), sequence (Q8R4B8 whole entry, the tested form may be a part): as the sequence (Q8R4B8 whole entry, the tested form may be a part) above

With `CCC1=C(C)CN(C(=O)NCCc2ccc(S(=O)(=O)NC(=O)Nc3c4c(cc5c3CCC5)CCC4)cc2)C1=O`, the IC50 in [1] was 0.042 µM.
For `Cc1ccc(S(=O)(=O)/C=C/C#N)cc1`, the IC50 in [2] came to 12 µM.
In data set [3], `Cc1cccc(Nc2ccccc2C(=O)O)c1C` [MEFENAMIC ACID] displayed an IC50 of 25 µM.
For `COc1ccc(Cl)cc1C(=O)NCCc1ccc(S(=O)(=O)NO)cc1`, the IC50 in [4] stood at 8.45 µM.
In the case of `O=C1/C(=C/c2ccccn2)CNC/C1=C\c1ccccn1`, the half-maximal inhibitory concentration (IC50) on Peroxiredoxin-1 is 0.95 µM.
Regarding `CCCCC/C=C/C(=O)CCc1ccc(O)c(OC)c1`, in [5], the inhibition stood at 100%.
Regarding `O=c1cc(-c2ccc(O)cc2)oc2cc(O)cc(O)c12` [APIGENIN], the inhibition in data set [6] worked out at 42.9%. In addition, the IC50 in data set [7] came out at 10 µM.
On to `COc1ccc2c(c1)C(=O)N(c1ccccc1)C2=O`, for which the IC50 in [8] was determined as 5 µM.
Consider `O=[N+]([O-])c1ccc2[nH]c(-c3cscn3)nc2c1`, for which the inhibition in data set [9] was found to be 30%.
Consider `CCn1c(-c2ccccc2)nc2cc(C)ccc21`, for which the IC50 in data set [10] amounted to 10 µM.
Take `CC(C)(O)c1coc(S(=O)(=O)NC(=O)Nc2c3c(cc4c2CCC4)CCC3)c1`: in data set [11], the t1/2 stood at 3.27 h.
Take `c1cc2[nH]c(-c3cscn3)nc2cn1`: the inhibition in [9] is 30%.
On to `O=c1[nH]c(-c2ccc(C(F)(F)F)cc2)nc2ccccc12`, for which the inhibition in data set [12] worked out at 21.3%.
With `C=C(Cc1ccccc1Cl)C(=O)NCCc1ccc(S(N)(=O)=O)cc1`, the values for the IC50 (in [13]; in the data set with THP-1 [14]) were 74 µM and 23.2 µM, respectively. Further, the inhibition at 10 µM in the data set on THP-1 [15] was 45.8%.
For the compound `O=c1cc(-c2ccc(Cl)c(Cl)c2)oc2ccccc12`, the inhibition in [6] was 49.5%.
Take `O=c1[nH]c(-c2ccc([N+](=O)[O-])cc2)nc2ccccc12`: the IC50 in [8] worked out at 5 µM.
In the case of `COc1ccc(-c2nc(O)c3ccccc3n2)cc1`, in [12], the inhibition worked out at 28.8%.
Turning to `CC1CC(=O)c2s/c(=N\C3CCCCC3)oc2C1` (centres undefined), in data set [16], the IC50 is 1.28 µM.
On to `CCCCCCC/C=C/C(=O)CCc1ccc(O)c(OC)c1`, for which the inhibition in data set [5] is 60.3%.
The compound `CS(=O)(=O)CCC#N` [DAPANSUTRILE] registered a Cmax in [17] of 311 µM. Besides, in data set [18], the IC50 was found to be 0.001 µM.

Values taken from ChEMBL document CHEMBL4321841, “Development of small molecule inhibitors targeting NLRP3 inflammasome pathway for inflammatory diseases” (Eur J Med Chem, 2020).
